Laboratory results taken from US9365853B2, “Matriptase inhibitors and uses thereof against orthomyxoviridae infections” (priority 2011, dated 2016).
Like-named read-outs stand apart in the source and are kept apart here. Where a SMILES comes first, the peptide text is derived from it. The star is where a group is joined. X1 = N=C(N)NCCC[C@@H](N*)C(=O)c1nc2ccccc2s1; CH2Cl = ClC*

How the values were obtained:
matriptase [1] = molecular target: T1, matriptase (Homo sapiens (Human), UniProt Q9Y5Y6); test: Ki determination for matriptase (Morrison tight-binding or mixed model, fluorogenic Boc-Gln-Ala-Arg-AMC); format: biochemical; conditions: for reduced potency (lower inhibition) compared to compound 1: matriptase Ki relative to compound 1
furin = furin (Homo sapiens (Human), UniProt P09958); test: Ki determination, selectivity profile: furin (Boc-Arg-Arg-Val-Arg-AMC); format: biochemical; conditions: furin (protease #7); NI = no inhibition, 10 μM
[2] = test system: influenza A/Puerto Rico/8/34 virus; format: cell-based, influenza A/Puerto Rico/8/34 virus (PR8)
[3] = test system: influenza A/Puerto Rico/8/34 virus; format: cell-based, influenza A/Puerto Rico/8/34 virus (PR8); remark: listed apart in the source
[4] = test system: influenza A/Puerto Rico/8/34; format: cell-based, influenza A/Puerto Rico/8/34 (H1N1)
[5] = molecular target: Recombinant purified human matriptase (amino acids 596-855) (Homo sapiens (Human), UniProt Q9Y5Y6); test: biochemical; format: biochemical
matriptase [6] = molecular target: T1, matriptase; test: Matriptase inhibition in cellulo (HEK293 transfected with pcDNA3.1-matriptase, activity in media); format: cell-based; conditions: HEK293, 24 h incubation, read-out: inhibition of matriptase activity in cultured cells
Description: Human embryonic kidney cells (HEK293) were transfected with 6 μg of pcDNA3.1™ (Mock) or pcDNA3.1™-matriptase (Matriptase) using Lipofectamine 2000™ reagent (Invitrogen) in 10-cm plates. […] After 24 h incubation, media was incubated with Boc-Gln-Ala-Arg-AMC substrate (50 μM) and fluorescence measured for 20 minutes at 37° C. Enzyme activity was determined in terms of released fluorescence units per minutes per μl of media for each condition.

matriptase [7] = molecular target: T1, matriptase; test: siRNA knock-down of matriptase protein expression in Calu-3 cells (Western blot, densitometry); format: cell-based; conditions: Calu-3, 50 nmol siRNA, 1.5 μl Lipofectamine RNAiMAX, 48 h after transfection
Description: Using RNA interference technology, siRNAs specific to human matriptase were targeted in these cells. Calu-3 cells were transfected with two different siRNAs (50 nmol, S1: s13520 (Ambion) Silencer® Select siRNAs gene symbol ST14; S2: EHU012511 (Sigma-Aldrich) MISSION® esiRNA targeting human ST14 (esiRNA1)) targeted toward matriptase mRNA (target sequence of EHU012511: […] […] […] […] (SEQ ID NO:5)) using various concentrations of Lipofectamine RNAiMAX™ (0.5 to 1.5 μl). Scrambled siRNAs were used as controls. 48 h after transfection, cellular protein extracts were prepared. Extracts were subjected to polyacrylamide gel electrophoresis (SDS-PAGE) and transferred to nitrocellulose membranes. Membranes were probed for matriptase protein expression using a rabbit anti-human matriptase-specific antibody. Membranes were blocked using non-fat dry milk in Tris-Buffered Saline (TBS) with Tween™ 20. Membranes were then labeled with a rabbit anti-human matriptase-specific antibody (Bethyl Laboratories Inc.).

matriptase [8] = molecular target: T1, matriptase; test: Dissociation of enzyme:inhibitor complex by dilution recovery experiments; format: biochemical; conditions: matriptase 0.5 μM pre-incubated 20 minutes, diluted 1:2000
Description: Dissociation of the enzyme-inhibitor (EI) complex was investigated using dilution recovery experiments. […] Complexes were rapidly (1:2000) diluted in a reaction buffer containing 400 μM of Boc-Gln-Ala-Arg-AMC (˜7 times Km). Activity was continuously recorded for 75 minutes and fluorescence plotted as a function of time.

Chain of Recombinant purified human matriptase (amino acids 596-855) (Q9Y5Y6 596-855 limits assumed): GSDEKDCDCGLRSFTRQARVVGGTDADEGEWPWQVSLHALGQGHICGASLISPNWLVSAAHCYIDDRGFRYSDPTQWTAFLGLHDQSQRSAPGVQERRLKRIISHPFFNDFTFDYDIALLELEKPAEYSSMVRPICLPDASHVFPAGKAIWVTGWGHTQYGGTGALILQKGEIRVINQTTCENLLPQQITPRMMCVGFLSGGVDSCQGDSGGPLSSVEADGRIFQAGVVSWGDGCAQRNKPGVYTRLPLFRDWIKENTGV
Chain of furin (P09958 108-794 limits assumed): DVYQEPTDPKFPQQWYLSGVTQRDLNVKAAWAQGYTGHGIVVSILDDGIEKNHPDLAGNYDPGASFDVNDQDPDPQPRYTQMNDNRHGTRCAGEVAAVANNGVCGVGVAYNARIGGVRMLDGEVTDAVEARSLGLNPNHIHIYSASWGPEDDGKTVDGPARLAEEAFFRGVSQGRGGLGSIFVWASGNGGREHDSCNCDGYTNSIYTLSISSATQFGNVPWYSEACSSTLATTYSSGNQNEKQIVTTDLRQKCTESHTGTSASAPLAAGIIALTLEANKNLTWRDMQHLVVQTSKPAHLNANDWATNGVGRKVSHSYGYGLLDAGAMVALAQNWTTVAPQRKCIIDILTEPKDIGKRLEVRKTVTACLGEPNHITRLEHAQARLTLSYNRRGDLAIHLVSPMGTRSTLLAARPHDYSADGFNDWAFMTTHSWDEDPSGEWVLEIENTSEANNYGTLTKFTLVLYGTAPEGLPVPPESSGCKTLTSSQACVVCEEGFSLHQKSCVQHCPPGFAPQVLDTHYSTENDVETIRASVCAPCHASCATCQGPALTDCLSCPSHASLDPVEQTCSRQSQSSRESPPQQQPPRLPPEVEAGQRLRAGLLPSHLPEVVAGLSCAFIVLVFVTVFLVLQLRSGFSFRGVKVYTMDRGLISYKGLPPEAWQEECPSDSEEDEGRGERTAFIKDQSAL

## C[C@H](NC(=O)[C@H](CCC(N)=O)NC(=O)[C@@H](N)CCCNC(=N)N)C(=O)N[C@@H](CCCNC(=N)N)C(O)c1nc2ccccc2s1 (mixture of isomers) [Compound 2, 2-(2-amino-5-carbamimidamidopentanamido)-N-(1-{[1-(1,3-benzothiazol-2-yl)-5-carbamimidamido-1-hydroxypentan-2-yl]carbamoyl}ethyl)pentanediamide]
Matriptase [1]
  Ki: 6.1 µM

## C[C@H](NC(=O)[C@H](CCC(N)=O)NC(=O)[C@@H](N)CCCNC(=N)N)C(=O)N[C@@H](CCCNC(=N)N)C(=O)c1nc2ccccc2s1 [Compound 1, RQAR-ketobenzothiazole]
furin
  Ki (nM): no inhibition
[2]; 1 μM
  influenza replication supported by matriptase: completely abrogate
[2]; 10 μM
  influenza replication supported by matriptase: completely abrogate
[3]
  effect on influenza replication with trypsin as the activating protease: no effect
[4]
  block of influenza replication: more than 50%
[5]
  inhibition of matriptase activity: almost completely
Matriptase [6]; 1 μM
  inhibition at 1 µM: ~50%
Matriptase [6]; 10 μM
  inhibition at 10 µM: ~100%

## CC(NC(=O)C(CCC(N)=O)NC(=O)C(N)CCCNC(=N)N)C(=O)NC(CCCNC(=N)N)C(O)c1nc2ccccc2s1 (centres unmarked) [Compound 2, 2-(2-amino-5-carbamimidamidopentanamido)-N-(1-{[1-(1,3-benzothiazol-2-yl)-5-carbamimidamido-1-hydroxypentan-2-yl]carbamoyl}ethyl)pentanediamide]
Matriptase [7]
  matriptase protein expression: significantly blocked

## CC(NC(=O)C(CCC(N)=O)NC(=O)C(N)CCCNC(=N)N)C(=O)NC(CCCCN)C(=O)c1nc2ccccc2s1 (centres unmarked) [Compound 3, N-(1-{[6-amino-1-(1,3-benzothiazol-2-yl)-1-oxohexan-2-yl]carbamoyl}ethyl)-2-(2-amino-5-carbamimidamidopentanamido)pentanediamide]
Matriptase [1]
  decrease of the Ki relative to compound 1: about 3 orders of magnitude
[5]; read-out: inhibition of matriptase activity
  inhibition at 1 µM: ~25%

## CC(=O)NC(CCCNC(=N)N)C(=O)c1nc2ccccc2s1 (centres unmarked) [Compound 6, N-[1-(1,3-benzothiazol-2-yl)-5-carbamimidamido-1-oxopentan-2-yl]acetamide]
Matriptase [1]
  Ki: 0.457 µM
  reduced potency (lower inhibition) compared to compound 1: over 30,000 fold
Matriptase [1]; matriptase
  mode of inhibition: mixed mode of inhibition

## C[C@H](NC(=O)[C@H](CCC(N)=O)NC(=O)[C@@H](N)CCCNC(=N)N)C(=O)N[C@@H](CC(=O)O)C(=O)N[C@H](CCCNC(=N)N)C(=O)c1nc2ccccc2s1 [Compound 7] (H-RQAD-X1)
Matriptase [1]
  reduced potency (lower inhibition) compared to compound 1: 400 fold

## N=C(N)NCCC[C@H](NC(=O)CNC(=O)[C@@H](N)CCC(=O)O)C(=O)CCl [EGR-CMK, Glu-Gly-Arg chloromethyl ketone] (H-Glu-Gly-Arg-CH2Cl)
Matriptase [8]
  dissociation of enzyme:inhibitor complex (reversibility): irreversible inhibition
